The test concerns the target purified human Factor XIa (Homo sapiens (Human), UniProt P03951). Put plainly: Factor XIa Assay. It counts as biochemical. The conditions noted are these: substrate Z-Gly-Pro-Arg-AFC; value printed in the compound table of Example 12; read-out: FXIa Ki. As to the method: The effectiveness of a compound of the present invention as an inhibitor of Coagulation Factor XIa can be determined using a relevant purified serine protease, and an appropriate synthetic substrate. The rate of hydrolysis of the chromogenic or fluorogenic substrate by the relevant serine protease was measured both in the absence and presence of compounds of the present invention. Assays were conducted at room temperature or at 37° C. […] A decrease in the rate of fluorescence change in the presence of inhibitor is indicative of enzyme inhibition. Such methods are known to one skilled in the art. The results of this assay are expressed as the inhibitory constant, Ki.
Factor XIa determinations were made in 50 mM HEPES buffer at pH 7.4 containing 150 mM NaCl, 5 mM CaCl2, and 0.1% PEG 8000 (polyethylene glycol; JT Baker or Fisher Scientific).
Times required to achieve equilibration between enzyme and inhibitor were determined in control experiments. Initial velocities of product formation in the absence (Vo) or presence of inhibitor (Vi) were measured. […]

purified human Factor XIa, sequence (P03951 388-625): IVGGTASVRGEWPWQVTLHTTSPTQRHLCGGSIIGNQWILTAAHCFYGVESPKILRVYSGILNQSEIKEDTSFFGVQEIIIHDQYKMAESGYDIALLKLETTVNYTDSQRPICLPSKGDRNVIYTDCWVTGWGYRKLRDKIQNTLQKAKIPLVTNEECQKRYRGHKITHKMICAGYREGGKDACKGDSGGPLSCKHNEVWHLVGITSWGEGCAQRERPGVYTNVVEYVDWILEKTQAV
purified human Factor XIa, sequence (P03951 19-387 partner): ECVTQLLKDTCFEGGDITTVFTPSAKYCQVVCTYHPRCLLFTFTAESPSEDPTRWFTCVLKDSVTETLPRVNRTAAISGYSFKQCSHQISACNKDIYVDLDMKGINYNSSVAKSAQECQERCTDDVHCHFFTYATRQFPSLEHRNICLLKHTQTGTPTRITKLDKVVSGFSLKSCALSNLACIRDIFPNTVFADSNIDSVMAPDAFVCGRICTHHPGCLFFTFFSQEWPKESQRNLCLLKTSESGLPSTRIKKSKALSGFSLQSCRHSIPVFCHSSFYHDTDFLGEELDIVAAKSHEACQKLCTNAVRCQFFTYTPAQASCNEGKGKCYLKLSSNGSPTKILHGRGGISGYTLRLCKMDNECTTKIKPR

Turning to `O=C(O)c1ccc(-c2cnc(C3CCc4cc(-c5cc(Cl)ccc5-n5cnnn5)c[n+]([O-])c43)[nH]2)s1` (stereo not shown) [Example 12, 5-(2-{3-[5-chloro-2-(1H-tetrazol-1-yl)phenyl]-1-oxido-6,7-dihydro-5H-cyclopenta[b]pyridin-7-yl}-1H-imidazol-5-yl)thiophene-2-carboxylic acid], the Ki (usually the dissociation constant of the complex between target and ligand, obtained from inhibition or displacement) was determined as 3.08 nM.

The values are drawn from patent publication US10081617B2, “Factor XIa inhibitors” (MERCK SHARP & DOHME CORP., priority 2015, dated 2018).
